# Results taken from ChEMBL document CHEMBL2086323, “Anti-adipogenic chromone glycosides from Cnidium monnieri fruits in 3T3-L1 cells” (2012).
# The source made the active and inactive calls. The calls are words filed in the database; no cut-off is given here.
# What was measured:
# 3T3-L1 [1] = assay: Inhibition of adipogenesis in mouse 3T3L1 cells assessed as fat accumulation at 300 uM up to 4 days by oil red O-staining based by ELISA plate reader; format: functional, cell-based
# 3T3-L1 [2] = assay: Inhibition of adipogenesis in mouse 3T3L1 cells assessed as fat accumulation at 300 uM up to 2 days by oil red O-staining based by ELISA plate reader; format: functional, cell-based
# 3T3-L1 [3] = assay: Inhibition of adipogenesis in mouse 3T3L1 cells assessed as fat accumulation at 300 uM after 8 days by oil red O-staining based by ELISA plate reader; format: functional; details: 3T3-L1, 192 h
# 3T3-L1 [4] = assay: Inhibition of adipogenesis in mouse 3T3L1 cells assessed as fat accumulation at 300 uM after 4 to 8 days by oil red O-staining based by ELISA plate reader; format: functional, cell-based
# 3T3-L1 [5] = assay: Inhibition of adipogenesis in mouse 3T3L1 cells assessed as fat accumulation at 300 uM after 2 to 8 days by oil red O-staining based by ELISA plate reader; format: functional, cell-based
# 3T3-L1 [6] = assay: Inhibition of adipogenesis in mouse 3T3L1 cells assessed as fat accumulation at 300 uM after 2 to 4 days by oil red O-staining based by ELISA plate reader; format: functional, cell-based
# 3T3-L1 [7] = assay: Inhibition of adipogenesis in mouse 3T3L1 cells assessed as fat accumulation at 100 uM after 8 days by oil red O-staining based by ELISA plate reader; format: functional; details: 3T3-L1, 192 h
Compound,inhibition at 300 µM (3T3-L1 [3]) [%],also measured
COc1cc2oc(C)cc(=O)c2c(O)c1C/C=C(/C)CO[C@@H]1O[C@H](CO)[C@@H](O)[C@H](O)[C@H]1O [CNIDIMOSIDE B],14.7,inhibition (3T3-L1 [1]): Active; inhibition (3T3-L1 [2]): Active; inhibition (3T3-L1 [4]): Active; inhibition (3T3-L1 [5]): Active; inhibition (3T3-L1 [6]): Active
C/C(=C/Cc1c(O[C@@H]2O[C@H](CO)[C@@H](O)[C@H](O)[C@H]2O)cc2oc(C)cc(=O)c2c1O)CO,87,
C=C(C)C(O)Cc1c(O[C@@H]2O[C@H](CO)[C@@H](O)[C@H](O)[C@H]2O)cc2oc(CO)cc(=O)c2c1O (stereo partly drawn) [MONNIERISIDE E],82.2,
C=C(C)C(Cc1c(O)cc2oc(C)cc(=O)c2c1O)O[C@@H]1O[C@H](CO)[C@@H](O)[C@H](O)[C@H]1O (stereo partly drawn) [MONNIERISIDE C],79.9,
C=C(C)C1Cc2c(cc3oc(CO)cc(=O)c3c2O)O1 (stereo not drawn) [UMTATIN],89.4,
Cc1cc(=O)c2c(O)cc(O[C@@H]3O[C@H](CO)[C@@H](O)[C@H](O)[C@H]3O)cc2o1 [UNDULATOSIDE A],88.5,
C/C(=C/Cc1c(O)cc2oc(CO)cc(=O)c2c1O)CO[C@@H]1O[C@H](CO)[C@@H](O)[C@H](O)[C@H]1O [HYDROXYCNIDIMOSIDE A],73.1,
C/C(=C/Cc1c(O)cc2oc(C)cc(=O)c2c1O)CO[C@@H]1O[C@H](CO)[C@@H](O)[C@H](O)[C@H]1O [CNIDIMOSIDE A],75,
Cc1cc(=O)c2c(O)c3c(cc2o1)OC(C(C)(C)O[C@@H]1O[C@H](CO)[C@@H](O)[C@H](O)[C@H]1O)C3 (stereo partly drawn) [MONNIERISIDE G],99.7,
Oc1ccc(/C=C/c2cc(O)cc(O)c2)cc1 [RESVERATROL],,inhibition at 100 µM (3T3-L1 [7]): 19.4%
C=C(C)C(Cc1c(O)cc2oc(CO)cc(=O)c2c1O)O[C@@H]1O[C@H](CO)[C@@H](O)[C@H](O)[C@H]1O (stereo partly drawn) [MONNIERISIDE D],85.5,
C=C(C)C1Cc2c(cc3oc(CO[C@@H]4O[C@H](CO)[C@@H](O)[C@H](O)[C@H]4O)cc(=O)c3c2O)O1 (stereo partly drawn) [MONNIERISIDE F],97.1,
C/C(=C/Cc1c(O[C@@H]2O[C@H](CO)[C@@H](O)[C@H](O)[C@H]2O)cc2oc(CO)cc(=O)c2c1O)CO [MONNIERISIDE B],68.9,
